Assay results: patent US20050197286A1, “Method for control of depression using c terminal growth hormone (gh) fragment” (priority 2002, published 2005)
“Also recorded” adds a separate entry of the source.

Tests used:
[1] = tested on: patients suffering from growth hormone deficiency; conditions: several studies, references 1-24; cited from earlier work
[2] = tested on: obese adult male subjects; test: Double-blind single oral dose study of AOD9604 (Example 2, Phase 2A); assay type: in vivo, human
Description: The objective of this study was to characterise the safety, tolerability, pharmacodynamic and pharmacokinetic effects of AOD9604 following single oral administration to obese adult male subjects.
The study was a double-blind, placebo controlled, 4×4 Williams Latin Square design, single oral dose study, planned to include 16 subjects. Each subject received active study drug on each of three occasions and placebo on one occasion. There was a washout period of 14 days between the doses administered in each study period.
Eligibility criteria were the same as for Example 1, except that the age range of the subjects was 35 to 60 years of age inclusive.
There were four study treatments, and each subject received each of the four treatments on four separate occasions, separated by a fourteen day wash out period. The dose strengths were as follows: • 10 mg (76.9 μg/kg for 130 kg subject); • 30 mg (230.8 μg/kg for 130 kg subject); • 60 mg (461.5 μg/kg for 130 kg subject); and • placebo.
The active pharmaceutical formulation was Size-0 capsules (Shionogi Qualicaps Co. Ltd.) of 10 mg AOD9604 containing 3.9% AOD9604, 84.1% Mannitol (USP) and 12% PEG3350, USP. Placebo capsules contained excipients only.
For each treatment, capsules were administered orally with 240 mL of room temperature water following at least a 12 hour overnight fast. Study personnel inspected the oral cavity to confirm that the subject has ingested the study treatment following each dose.
In the Phase 2A single dose intravenous trial, reported in Example 1, mild euphoria was reported by several patients who received drug and none who received placebo. The patients taking part in this single dose oral treatment were therefore asked to complete the Nottingham Health Profile questionnaire (see Wiklund I. (1990) The Nottingham Health Profile—a measure of health-related quality of life. Scand. J. Prim. Health Care Suppl. 1:15-8) before dose and 7 days after dose.

[3] = tested on: obese adult male subjects; test: Double-blind multiple oral dose escalation study of AOD9604 (Example 3, Phase 2A); assay type: in vivo, human
Description: The objective of this study was to characterise the safety and tolerability and the pharmacodynamic profile of AOD9604 following multiple oral administration to obese adult male subjects.
This was a double-blind, placebo-controlled, 3 period, oral dose, dose escalation study with randomization directed such that each subject received 7 doses of active study drug or placebo over one 7-day period, i.e. one dose per day for 7 days. There were up to three dose levels of AOD9604 and placebo studied in 3 cohorts of 12 subjects each. In each study period, 12 subjects were randomised so that 9 received active study drug and 3 received placebo. There was a period of 7 days between study periods to allow for appropriate safety review and permission to progress to the next dose level.
The eligibility criteria of subjects were as for Example 2, except that the age range was 18 to 60 years of age, and the BMI threshold was ≧30 kg/m^2, since the primary aim of the study was safety assessment. The restrictions on the subjects and the conduct of the study again were generally as in Example 2.
There were three study periods, and the dose strengths used were 10 mg, 30 mg, 60 mg and placebo, with seven doses per study period. The formulation of AOD9604 and placebo were as for Example 2.
For each treatment, capsules were administered orally every day for 7 days with 240 mL of room temperature water following at least a 12 hour overnight fast.
The patients were asked to complete the SF-36 Quality of Life Questionnaire (Ware J. J. and Sherbourne C. D. (1992) The MOS 36-item short-form health survey (SF-36). I. Conceptual framework and item selection. Medical Care; 30:473-83) at days 0, 8 and 14. The results are illustrated in FIG. 2, A and B and FIG. 3, A and B. The SF-36 questionnaire is different to the questionnaire used in the Phase 2A […] single dose trial of Example 2. SF-36 provides only positive numerical values for mood assessment, with higher values indicating greater happiness, and lower values indicating lower happiness. (The graphs in FIGS. 2 and 3 however do have some negative values because they are representing the change in mood from pre-treatment.) FIGS. 2 and 3 show a similar bell-shaped dose response on mood as that observed in Example 1 (only it is a reversed bell-shape in comparison to Example 1). […] There was an improvement in the mental aggregate scores, relative to placebo, at the 10 mg dose on day 8, and a worsening at the 30 mg and 60 mg doses relative to placebo.

[4] = tested on: obese adult male subjects; test: Double-blind, placebo-controlled single intravenous dose study of AOD9604 (Example 1); assay type: in vivo, human
Protocol: The objective of this study was to characterise the safety, tolerability and pharmacodynamic effects of AOD9604 following single intravenous administration to obese adult male subjects. The study was performed by CMAX Pty Ltd under contract to Metabolic Pharmaceuticals Ltd.
The study was designed as a double-blind, placebo-controlled, 4×4 Williams Latin Square design, intravenous dose study included twenty four (obese Body mass index (BMI) of ≧35 kg/m^2 and a waist circumference of ≧110 cm) adult subjects with each subject receiving active study drug on each of three occasions and placebo on one occasion. Treatment allocation was randomised according to a Master Randomisation Schedule.
Subjects who provided written informed consent and who met all inclusion/exclusion criteria were randomised to receive each of the four treatments according to the study Master Randomisation Schedule. The subjects were randomised to receive a single dose of 25, 50 and 100 μg/kg AOD9604 and a single dose of placebo (5% mannitol solution) over the four periods of the study. Dose administration was by intravenous infusion, and was conducted over a period of 10 minutes.
During each in-clinic stay, blood samples were collected at specified times both prior to and following dose administration for the determination of pharmacodynamic parameters of non-esterified fatty acids (NEFA), glycerol, glucose and IGF-1. For the purposes of safety monitoring, the physical condition (physical examination, blood pressure, pulse, temperature and general well being) of the subjects was monitored both prior to and at specified intervals during each study period. ECG monitoring was performed prior to the infusion, at the end of the infusion and at specified times following the end of the infusion. Blood samples were also collected for assessment of haematological and biochemical parameters. Subjects were released from the clinic following the 24 hour post-dose blood sample and physical examination. Subjects returned to the clinic for the following period after a 7-day washout period. Within 14 days of the final period (Period 4), an Exit Evaluation was performed, involving the following assessments: physical examination (including ECG monitoring), body height and weight determination, vital sign measurements, questions regarding adverse events, collection of blood samples for the assessment of haematological and biochemical parameters, and collection of a urine sample for urinalysis and microscopy. A further 5 mL blood sample was collected and the serum stored for possible antibody analysis to be done at a later date.
Treatment A: A single dose of 25 μg/kg AOD9604 administered intravenously via an infusion pump over a 10 minute period.
Treatment B: A single dose of 50 μg/kg AOD9604 administered intravenously via an infusion pump over a 10 minute period.
Treatment C: A single dose of 100 μg/kg AOD9604 administered intravenously via an infusion pump over a 10 minute period.
Each subject received one of each of three doses of the active study drug, AOD9604 (25, 50, and 100 μg/kg) on three occasions and a placebo on one occasion. The doses were administered as intravenous infusions of 10 minute duration with a wash-out period of 7 days between each consecutive treatment. Subjects were not permitted to eat or drink anything, except for water, for at least 10 hours prior to and 2 hours following administration of the dose. Meals were timed in relation to the end of dosing, as follows: Snack (2 hours and 5 minutes), Lunch (4 hours and 5 minutes), Dinner (10 hours and 5 minutes) and Snack (13 hours and 5 minutes).

healthy lean males = assay type: in vivo, human
Protocol: The selection of 25, 50 and 100 μg/kg doses of AOD9604 used in this study was based on the results from a previous Phase I study, conducted from February-June 2001, in healthy lean males using a dose range of 25-400 μg/kg AOD9604.

C57Bl/6J (Ob/Ob) mouse = conditions: Australian patent No. 693478; cited from earlier work
[5] = single iv infusion 25, 50 or 100 μg/kg, only in periods with active drug, none with placebo

Substance: Intact growth hormone: intact growth hormone, the full hormone from which the C-terminal fragments derive
- effect on mood [1]: positive effects on mood

Substance: Tyr-hGH 177-191 [AOD9604]
- mood, Nottingham Health Profile questionnaire, response by dose ([2]; 30 mg single oral dose, lower is happier): greatest response
- non-esterified fatty acid (NEFA) levels compared to placebo ([2]; 1, 2 and 4 hours after AOD9604 27.6 mg oral, p<0.05): statistically significantly increased
- NEFA response ([2]; AOD9604 55.2 mg oral, compared with 27.6 mg): lower response
- mood, Nottingham Health Profile questionnaire ([2]; before dose vs 7 days after dose, all single oral doses (10, 30, 60 mg), placebo worsened): improvement of mood
- tolerability ([2]; over the oral dose range 10-60 mg single dose): well tolerated
- incidence of adverse events, active vs placebo ([2]; single oral doses): no observable trends
- vital signs, ECG, physical examination and clinical laboratory assessments ([2]; single oral doses): no clinically significant changes
- gastrointestinal adverse effects ([3]; 60 mg dose group, particularly in the hour after dose): increase in mild gastrointestinal effects
- significance of body weight effect in subgroup ([3]; age 35+ and BMI 35+ group, p<0.05): statistically significant
- SF-36 mental aggregate relative to placebo, all doses ([3]; at 8 days vs day 0, 10, 30, 60 mg/day oral for 7 days): improvement in the mental aggregate for all doses relative to placebo
- significance of SF-36 improvement at 10 mg ([3]; at 8 days, 10 mg/day oral, p<0.05): statistically significant
- SF-36 physical aggregate relative to placebo ([3]; at 14 days, dose 60 mg/day, only aggregate/dose worse than placebo): worse result that the placebo
- SF-36 mental aggregate scores relative to placebo, 10 mg ([3]; day 8, 10 mg/day oral): improvement
- SF-36 mental aggregate scores relative to placebo, 30 mg and 60 mg ([3]; day 8, 30 mg and 60 mg/day oral): worsening
- body weight difference (anti-obesity effect) ([3]; morning of day 1 vs day 8, bell-shaped dose response): clear activity
- incidence of adverse events, active vs placebo ([3]; multiple oral doses, 7 days): no observable trends
- vital signs, ECG, physical examination and clinical laboratory assessments ([3]; multiple oral doses, 7 days): no clinically significant changes
- mean serum NEFA compared to placebo ([4]; 2 hours post dose, all AOD9604 doses (25, 50, 100 μg/kg iv)): rose more
- severity of euphoria ([4]; after a single iv dose of active drug): mild to moderate euphoria; also recorded: mild or moderate euphoria
- weight loss in older patients compared to placebo ([4]; aged 35+ (N=13), highest dose 100 μg/kg iv): highly significant weight loss
- body weight change compared to placebo ([4]; measured 1 week after each iv dose): lower in the treated groups than in those receiving placebo
- significance of NEFA effect in older patients ([4]; patients aged 35+, 2 hours post dose): highly significant
- subjects experiencing euphoria (number of subjects) [4, 5]: 5/23
- subjects experiencing euphoria (percentage) [4, 5]: 21.7%
- pharmacodynamic response at 50 μg/kg (healthy lean males; 50 μg/kg): a response had been shown
- pharmacodynamic response at high dose (healthy lean males; dose increased to 200 μg/kg and higher): response diminished
- pharmacodynamic response (healthy lean males; iv dose range 25-400 μg/kg): A pharmacodynamic response was seen

Substance: hGH 177-191: synthetic peptide corresponding to amino acid residues 177-191 of the human growth hormone sequence (LRIVQCRSVEGSCGF; UniProt P01241 203-217, looked up, fragment)
- body weight gain and adipose tissue mass (C57Bl/6J (Ob/Ob) mouse): reduce body weight gain and adipose tissue mass
